Source: PMC4279419, “Angiostatic, tumor inflammatory and anti-tumor effects of CXCL4^47–70 and CXCL4L1^47–70 in an EGF-dependent breast cancer model” (Oncotarget, 2014)
Where no end group is shown, it is not given here. The star is where a group is joined. Biotin = O=C1N[C@H]2[C@H](CS[C@H]2CCCCC(=O)*)N1

Assays:
CXCR3A = assay: Calcium signaling in CXCR3A-transfectants; format: cell-based; conditions: CXCL10 5 ng/ml after prestimulation with buffer; CHO/CXCR3A; fura 2
Excerpt: We further tried to reveal the mode of action of CXCL4^47–70 and CXCL4L1^47–70. First, we excluded that either peptide still binds/activates one of the CXCR3 isoforms, the receptors for intact CXCL4 and CXCL4L1. […]
inhibit signaling by intact CXCL10. To study interaction of CXCL447–70 and CXCL4L147–70 with CXCR3A, CHO cells stably transfected with CXCR3A were loaded with the fluorescent dye fura 2 (Struyf et al. J. Immunol. 2009, 182:666). Changes in the intracellular Ca2+ concentrations ([Ca2+]i) in response to CXCL447–70 or CXCL4L147–70 treatment were monitored using a spectrofluorometer. The line in the spectra indicates the fluorescence intensity ratio (i.e. the fluorescence intensity measured after excitation at 340 nm divided by the fluorescence intensity measured after excitation at 380 nm). The results shown (one representative experiment out of three) illustrate a desensitization experiment, in which CHO/CXCR3A cells were stimulated first with a peptide (2 µg/ml) and 100 s later with intact CXCL10 […]
peptides induced a rise in [Ca2+]i. When the cells were stimulated with 5 ng/ml intact CXCL10 100 s after peptide treatment, the response […]
interact with CXCR3A. Arrows indicate the time of addition of the stimulus.
(also on this page, place not known: www.impactjournals.com/oncotarget/ Oncotarget, Supplementary Materials 2014 CXCL4 47–70 CXCL4L1 47–70 CXCL4 47–70 CXCL4L1 47–70 CXCL4 47–70) […]

p21 in HMVEC = assay: Intracellular p21 content in HMVEC (ELISA); format: cell-based, human; conditions: EGF 20 ng/ml; 15 h; p21:total protein; mean ± s.e.m., n=9; p<0.001 versus control
Description: Signaling assays were slightly adapted to the signaling molecules of interest in this study. HMVEC were stimulated with EGF (20 ng/ml) as a single stimulus or in combination with the peptides CXCL4^47–70 and CXCL4L1^47–70 (0.3 to 10 μg/ml) in order to evaluate their impact on the cell cycle-arresting p21. After 15 hours, the cells were washed three times with ice-cold PBS to stop the stimulation and lysis buffer [1 mM EDTA, 0.5% (v/v) Triton-X, 10 mM NaF, 150 mM NaCl, 1 mM DTT in PBS; pH 7.2–7.4] supplemented with a protease inhibitor cocktail (Sigma) was added. Cell residue was removed from the collected lysates by centrifugation (4°C, 10 min, 1666g). Lastly, the intracellular p21 content was determined by DuoSet® IC ELISA (cat n° DYC1047, R&D Systems) while, in parallel, total protein content was measured in a bicinchoninic acid (BCA) protein assay (Pierce, Rockford, IL).

[1] = test system: human retinal microvascular endothelial cells (HMVEC); assay: HMVEC MTT proliferation assay; format: cell-based; conditions: EGF 3 ng/ml; control medium PI=1; 3 to 4 days; MTT OD570–630; mean ± s.e.m., n=7
Description: (§1) First, HMVEC and HLEC were seeded at 5 × 10^3 cells/well in EBM-2 + 1% FCS in a 96-well plate, whereas MDA-MB-231 were starved of growth factors overnight by replacing their growth medium with DMEM (serum-free) prior to seeding the tumor cells at 15 × 10^2 cells/well in DMEM + 1% FCS. As for the rest of the assay, the same protocol applies to all cells. Once adherent, cells were incubated with different concentrations of the peptides CXCL4^47–70 and CXCL4L1^47–70 as single stimuli or in combination with recombinant human EGF (3 ng/ml; R&D Systems, Minneapolis, MN) at 37°C/5% CO2. All conditions were tested in triplicate or quadruplicate. After 3 to 4 days, stimulation medium was removed and a sterile MTT solution was added [0.04 g/100 ml thiazolyl blue (Sigma-Aldrich, St. Louis, MO) in 20% PBS/80% RPMI without phenol red (Lonza)] for 3 to 4 hours. The formed formasan crystals were dissolved by replacing the MTT solution with acidic propanol (0.04 M HCl, 0.1% (v/v) Nondet P-40 in absolute isopropanol) and shaking the plate, shielded from light, for 10 minutes. Optical density (OD) was determined at 570 nm and 630 nm. The obtained ODs were processed to proliferation indexes (PI), expressed relative to appropriate buffer controls, i.e. ΔOD570–630X over ΔOD570–630CO.

[2] = test system: human dermal lymphatic microvascular endothelial cells (HLEC); assay: HLEC MTT proliferation assay; format: cell-based; conditions: data not shown
Description: as §1

p21 = conditions: EGF-stimulated endothelial cells; cited from earlier work
Excerpt: Previously, the EGF-induced reduction of the cyclin-dependent kinase inhibitor p21 was described. […] Therefore, we studied the effects of chemokine-derived peptides on p21 levels and, with it, their ability to arrest the cell cycle. Evaluation of the p21 content in HMVEC did confirm CXCL4^47–70 and CXCL4L1^47–70 to counteract the tendency of EGF to reduce p21 (Figure 2). […] Ad ...

monocyte = conditions: through heteromultimerization with CCL5; cited from earlier work
Excerpt: Concerning direct cytokine ligand interactions, both positive and negative interactions have been described for intact CXCL4 [33, 34, 37, 38] and its carboxy-terminal peptide. […] In this study we chose two cytokines important in our breast cancer model and verified interaction with CXCL4^47–70 and CXCL4L1^47–70: EGF as g ...

endothelial cell = conditions: compared with CXCL4; cited from earlier work
Excerpt: Angiogenesis, the formation of an ever more branching network of blood vessels from a pre-existing vascular network, has been established as a requisite for successful tumor growth and cancer progression. Anti-angiogenic therapy thus offers a promising approach to tackle one of the leading causes of mortality worldwide. However, classic anti-angiogenic therapeutics have encountered important hurdles and interest in less obvious targets, including inflammatory mediators such as the chemokines, increases. These chemotactic cytokines play an important role in immunity as they ...

recombinant human CCL5 = biological target: T1, recombinant human CCL5 (human, UniProt P13501 24-91); assay: ELISA; 50 ng/ml CCL5 in PBS coated overnight at room temperature on high protein-binding ELISA plates, blocked with 0.1% casein; dilution curve of biotinylated peptide at 37 °C; detected with peroxidase-conjugated streptavidin, OD450; conditions: both partners purified
T1 construct: CCL5, human, recombinant protein; source: bought: PeproTech
T1 sequence (looked up): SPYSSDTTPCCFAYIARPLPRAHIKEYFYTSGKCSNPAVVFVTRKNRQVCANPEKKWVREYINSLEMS

In the case of “CXCL10: intact CXCL10, CXCR3 ligand [reference compound]”, the “calcium response to CXCL10” value (CXCR3A) is reported as “significant increase in [Ca2+]i”.

For “EGF: recombinant human EGF (R&D Systems) [reference compound]”, the “intracellular p21 relative to control (100%), EGF alone” value (p21 in HMVEC) was 75.82 ± 3.69%, the “Proliferation index (PI), EGF alone” value [1] was 1.42 ± 0.08 and the “HLEC proliferation response to EGF” value [2] was “not responsive to EGF-stimulation”.

B1: CXCL4: natural human CXCL4 isolated from stimulated platelets; 70 amino acid-long mature protein (protein, UniProt P02776 32-101, looked up)
Platelet factor 4: EAEEDGDLQCLCVKTTSQVRPRHITSLEVIKAGPHCPTAQLIATLKNGRKICLDLQAPLYKKIIKKLLES
For B1, the “effect on EGF-induced p21 downregulation” value (p21) is given as “appeared to interfere with this p21 downregulation” and the “effect on CCL5 monocyte chemotactic activity” value (monocyte) is given as “enhances monocyte chemotactic activity of CCL5”.

B2: CXCL4L1: recombinant human CXCL4L1 isolated from baculovirus-infected Sf9 cells (protein, UniProt P10720 31-104, looked up)
Platelet factor 4 variant: FARAEAEEDGDLQCLCVKTTSQVRPRHITSLEVIKAGPHCPTAQLIATLKNGRKICLDLQALLYKKIIKEHLES
For B2, the “inhibition of CXCL8- and FGF2-induced endothelial cell chemotaxis” value (endothelial cell) is given as “more efficiently than CXCL4”.

B3: NH2-terminally biotinylated CXCL4^47–70 peptide (peptide, UniProt P02776 78-101, looked up)
peptide: Biotin-NGRKICLDLQAPLYKKIIKKLLES
notes: CXCL4/Platelet factor-4 (PF-4), human, last 24 amino acids (residues 47-70) of the 70 amino acid-long mature protein; has Pro58, Lys66, Leu67; numbers count on: the mature protein; The functional assays (chemotaxis, calcium) used the peptide without mention of biotin; also called carboxy-terminal peptide of CXCL4/Platelet factor-4 (PF-4); source: synthetic peptide (Fmoc chemistry, purified by …)
B3: binds (recombinant human CCL5).
